{"source": "patent US20200190062A1", "about": "“HETEROCYCLIC COMPOUND AND PHARMACEUTICAL COMPOSITION COMPRISING SAME” (BEYONDBIO INC., priority 2015, published 2020)", "key": {"[1]": {"system": "Human glioblastoma U-87MG cell line", "experiment": "Tumor growth inhibition by combined administration in an animal model (U-87MG xenograft)", "conditions": "oral daily for 30 days; for tumor growth inhibition: vs vehicle control", "description": "Human glioblastoma U-87MG cell line of 5×10^6 cells/0.1 ml PBS was injected subcutaneously into the right flank of a Balb/c nude mouse. When a tumor grew to 150 mm^3, 5 mice were assigned for each group so that tumor sizes of all groups are consistent and a test compound was orally administered daily. Tumor size was measured three times a week using Caliper. […] For the combined administration, TMZ was orally administered daily for the first 5 days. For the single administration, the compound of Example 61 was orally administered daily for 30 days. For the combined administration, the compound of Example 61 was administered orally daily for 34 days. 20% propylene glycol (PG) was used as a vehicle control. Tumor size (volume) was calculated from the tumor length measured in each animal using the following Equation 1.\nTumor volume=(length of major axis×length of minor axis)/2 [Equation 1]"}, "[2]": {"system": "Human colon carcinoma HCT116 cell line", "experiment": "Tumor growth inhibition in an animal model (HCT116 xenograft)", "assay_type": "in vivo, Balb/c nude mouse", "conditions": "oral daily for 12 days; for tumor growth inhibition: vs vehicle control", "method": "Tumor size was measured twice a week using Caliper. […] A vehicle control was 20% propylene glycol (PG) and a positive control was Xeloda at 100 mg/kg."}, "[3]": {"system": "human colon carcinoma cell line HCT116", "experiment": "Cell cycle change by flow cytometry, cancer cells", "assay_type": "cell-based", "conditions": "24 hrs", "method": "(§1) A human colon carcinoma cell line HCT116 and a human normal lung cell line MRC5 were cultured in DMEM medium containing 10% FBS. Each cultured cells were harvested, placed in 6 well plate at 1×10^6 cells/well, and cultured at 5% CO2 and 37° C. for 16 hrs. The compounds of the above Examples at 75 nM and 150 nM in DMEM containing 5% FBS were added to the cells in each well, and after 24 hrs a change in the cell cycle was analyzed using a flow cytometry. Media of treatment groups and a control group were removed, trypsin was added to isolate cells from the plates and the cells were centrifuged at 1000 g for 3 min. The isolated cells were washed with a cold phosphate buffer (PBS) two times. Afterwards, 1 ml of 70% ethanol was added to the cells and the cells were maintained at 4° C. for 30 min or more to fix the cells. The fixed cells were centrifuged at 1000 g for 3 min to remove ethanol, and washed with phosphate buffer (PBS) two times to remove ethanol completely. The washed cells were suspended in 250 ul of PBS, 6.25 ul of 10 mg/ml RNaseA was added to the suspension and reacted for 15 min at room temperature to degrade all RNA. 12.5 ul of 1 mg/ml propidium iodide (PI, sigma) was added to stain intracellular DNA. The cell cycles of 10,000 stained cells were measured using FACS calibur (Becton-Dickinson, USA) and cell numbers present in G1, S and G2/M phases were calculated as percentage using a cell cycle analysis program. Tables 3 and 4 show the results of cell cycle analysis for the compound obtained in Example 1 in cancer cells and normal cells, respectively."}, "[4]": {"system": "human normal lung cell line MRC5", "experiment": "Cell cycle change by flow cytometry, normal cells", "assay_type": "cell-based", "conditions": "24 hrs", "method": "as §1"}, "[5]": {"system": "Aβ (amyloid β protein)", "experiment": "Inhibition of Aβ generation in B103/APP cells (Aβ42 ELISA)", "assay_type": "cell-based", "conditions": "Rattus norvegicus, 72 hrs", "method": "The APP gene was inserted into B103 cells so that APP could be stably expressed and the resulting B103/APP cells were used to confirm inhibition of APP phosphorylation and Aβ generation.\nFurther, to confirm whether Aβ generation is reduced due to APP phosphorylation inhibition, 5×10^5 B103/APP cells were cultured in a 6-well plate for 16 hrs. Afterwards, the compounds obtained in the above Examples were added at 100 nM, 75 nM, 50 nM, 25 nM, 12.5 nM to a medium containing 500 ug/ml of G418 and 0.5% FBS and incubated for 72 hrs. After 72 hrs, the amount of Aβ was quantified using the medium by Human Aβ42 ELISA kit (Invitrogen)."}}, "note": "Where a name gives a salt, the structure may show the parent alone."}
{"smiles": "Nc1nccc(-c2ccc(O)c(-c3ccnc(N)n3)n2)n1", "note": "[Example 61, 2,6-bis(2-aminopyrimidin-4-yl)pyridin-3-ol 3hydrochloride]", "values": [{"measurement": "Tumor size", "setting": "[1]; 15 mpk alone", "value": "3503.3 ± 674.9", "unit": "mm^3"}, {"measurement": "tumor growth inhibition", "setting": "[1]; 15 mpk alone", "value": 16.8, "unit": "%"}, {"measurement": "Tumor size", "setting": "[1]; 30 mpk alone", "value": "2015.0 ± 1023", "unit": "mm^3"}, {"measurement": "tumor growth inhibition", "setting": "[1]; 30 mpk alone", "value": 52.2, "unit": "%"}, {"measurement": "Tumor size", "setting": "[2]; 1 mpk", "value": "1082.4 ± 994.6", "unit": "mm^3"}, {"measurement": "tumor growth inhibition", "setting": "[2]; 1 mpk", "value": 41.3, "unit": "%"}, {"measurement": "Tumor size", "setting": "[2]; 3 mpk", "value": "773.7 ± 253.9", "unit": "mm^3"}, {"measurement": "tumor growth inhibition", "setting": "[2]; 3 mpk", "value": 58.0, "unit": "%"}, {"measurement": "Tumor size", "setting": "[2]; 10 mpk", "value": "647.4 ± 462.1", "unit": "mm^3"}, {"measurement": "tumor growth inhibition", "setting": "[2]; 10 mpk", "value": 64.9, "unit": "%"}, {"measurement": "Tumor size", "setting": "[2]; 30 mpk", "value": "403.4 ± 224.1", "unit": "mm^3"}, {"measurement": "tumor growth inhibition", "setting": "[2]; 30 mpk", "value": 78.1, "unit": "%"}]}
{"smiles": "Nc1nccc(-c2ccc(O)c(-c3ccnc(N)n3)n2)n1", "note": "[Example 1, 2,6-bis(2-aminopyrimidin-4-yl)pyridin-3-ol]", "values": [{"measurement": "G1 (cell numbers as percentage)", "setting": "[3]; HCT116, 75 nM", "value": 22.3, "unit": "%"}, {"measurement": "G2/M (cell numbers as percentage)", "setting": "[3]; HCT116, 75 nM", "value": 51.5, "unit": "%"}, {"measurement": "Polyploidy (cell numbers as percentage)", "setting": "[3]; HCT116, 75 nM", "value": 16.3, "unit": "%"}, {"measurement": "S (cell numbers as percentage)", "setting": "[3]; HCT116, 75 nM", "value": 5.3, "unit": "%"}, {"measurement": "Sub-G1 (cell numbers as percentage)", "setting": "[3]; HCT116, 75 nM", "value": 4.9, "unit": "%"}, {"measurement": "G1 (cell numbers as percentage)", "setting": "[3]; HCT116, 150 nM", "value": 4.3, "unit": "%"}, {"measurement": "G2/M (cell numbers as percentage)", "setting": "[3]; HCT116, 150 nM", "value": 54.4, "unit": "%"}, {"measurement": "Polyploidy (cell numbers as percentage)", "setting": "[3]; HCT116, 150 nM", "value": 23.3, "unit": "%"}, {"measurement": "S (cell numbers as percentage)", "setting": "[3]; HCT116, 150 nM", "value": 2.6, "unit": "%"}, {"measurement": "Sub-G1 (cell numbers as percentage)", "setting": "[3]; HCT116, 150 nM", "value": 5.8, "unit": "%"}, {"measurement": "G1 (cell numbers as percentage)", "setting": "[4]; MRC5, 75 nM", "value": 50.7, "unit": "%"}, {"measurement": "G2/M (cell numbers as percentage)", "setting": "[4]; MRC5, 75 nM", "value": 22.8, "unit": "%"}, {"measurement": "Polyploidy (cell numbers as percentage)", "setting": "[4]; MRC5, 75 nM", "value": 8.8, "unit": "%"}, {"measurement": "S (cell numbers as percentage)", "setting": "[4]; MRC5, 75 nM", "value": 9.1, "unit": "%"}, {"measurement": "Sub-G1 (cell numbers as percentage)", "setting": "[4]; MRC5, 75 nM", "value": 8.8, "unit": "%"}, {"measurement": "G1 (cell numbers as percentage)", "setting": "[4]; MRC5, 150 nM", "value": 44.0, "unit": "%"}, {"measurement": "G2/M (cell numbers as percentage)", "setting": "[4]; MRC5, 150 nM", "value": 26.6, "unit": "%"}, {"measurement": "Polyploidy (cell numbers as percentage)", "setting": "[4]; MRC5, 150 nM", "value": 10.2, "unit": "%"}, {"measurement": "S (cell numbers as percentage)", "setting": "[4]; MRC5, 150 nM", "value": 6.8, "unit": "%"}, {"measurement": "Sub-G1 (cell numbers as percentage)", "setting": "[4]; MRC5, 150 nM", "value": 12.8, "unit": "%"}]}
{"smiles": "Cc1cc(-c2nc(-c3ccnc(N)c3F)ccc2O)nc(N)n1", "note": "[Example 71, 2′-amino-6-(2-amino-6-methylpyrimidin-4-yl)-3′-fluoro-[2,4′-bipyridin]-5-ol 3hydrochloride]", "values": [{"measurement": "inhibition at 0.0125 µM", "setting": "[5]; 12.5 nM", "value": 37.6, "unit": "%"}, {"measurement": "inhibition at 0.025 µM", "setting": "[5]; 25 nM", "value": 36.2, "unit": "%"}, {"measurement": "inhibition at 0.05 µM", "setting": "[5]; 50 nM", "value": 46.7, "unit": "%"}, {"measurement": "inhibition at 0.075 µM", "setting": "[5]; 75 nM", "value": 76.8, "unit": "%"}, {"measurement": "inhibition at 0.1 µM", "setting": "[5]; 100 nM", "value": 100, "unit": "%"}]}
